Reference: the supplement of paper PMC10307832

Assays:
Assay in all cases: relative viability (nuclei count vs DMSO), 5 days (fraction); higher = more cells survive
[1] = compound: COC1=C(C=C(C=C1)C2=CC3=NC=CN3C(=N2)NC4=C(C=CC=N4)C(=O)N)OC [BAY61-3606] + CC(=O)c1c(C)c2cnc(Nc3ccc(N4CCNCC4)cn3)nc2n(C2CCCC2)c1=O [Palbociclib] (partner 0.5 µM)
Summary of the method: (§1)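 One day after seeding in 1536-well plates, lung cancer cell lines were dosed by pin tool. Dosing was either single-drug or a fixed anchor-drug dose plus five library-drug doses (not always all listed) in √10 steps. After 5 days, nuclei were stained in one fix-and-stain step and counted on 4× images, and relative viability is the nuclei count of treated wells over that of vehicle wells, given as the median of duplicate plates.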

[2] = compound: COC1=C(C=C(C=C1)C2=CC3=NC=CN3C(=N2)NC4=C(C=CC=N4)C(=O)N)OC [BAY61-3606] + C[C@]1(O)C[C@@H](c2nc(-c3ccc4ccc(-c5ccccc5)nc4c3)c3c(N)nccn32)C1 [Linsitinib] (partner 1 µM)
Summary of the method: as §1

[3] = compound: COC1=C(C=C(C=C1)C2=CC3=NC=CN3C(=N2)NC4=C(C=CC=N4)C(=O)N)OC [BAY61-3606] + O=C(c1cc(Cc2n[nH]c(=O)c3ccccc23)ccc1F)N1CCN(C(=O)C2CC2)CC1 [Olaparib] (partner 8 µM)
Summary of the method: as §1

[4] = compound: COc1cccc2c1C(=O)c1c(O)c3c(c(O)c1C2=O)C[C@@](O)(C(=O)CO)C[C@@H]3O[C@H]1C[C@H](N)[C@H](O)[C@H](C)O1 [Doxorubicin] + C[C@@H](Oc1cc(-c2cnn(C3CCNCC3)c2)cnc1N)c1c(Cl)ccc(F)c1Cl [Crizotinib] (partner 1 µM)
Summary of the method: as §1

UMC-11
relative viability ([1]; first compound 0.02 µM): 0.352 | relative viability ([1]; first compound 0.06325 µM): 0.319 | relative viability ([1]; first compound 0.2 µM): 0.304 | relative viability ([1]; first compound 0.6325 µM): 0.361 | relative viability ([1]; first compound 2 µM): 0.339 | relative viability ([2]; first compound 0.02 µM): 1.08 | relative viability ([2]; first compound 0.06325 µM): 1.11 | relative viability ([2]; first compound 0.2 µM): 0.995 | relative viability ([2]; first compound 0.6325 µM): 1.08 | relative viability ([2]; first compound 2 µM): 1 | relative viability ([3]; first compound 0.02 µM): 0.351 | relative viability ([3]; first compound 0.06325 µM): 0.385 | relative viability ([3]; first compound 0.2 µM): 0.268 | relative viability ([3]; first compound 0.6325 µM): 0.643 | relative viability ([3]; first compound 2 µM): 0.266 | relative viability ([4]; first compound 0.001 µM): 0.539 | relative viability ([4]; first compound 0.003162 µM): 0.66 | relative viability ([4]; first compound 0.01 µM): 0.648 | relative viability ([4]; first compound 0.03162 µM): 0.309 | relative viability ([4]; first compound 0.1 µM): 0.386
